Results published in patent US5955092A, “Skin care compositions containing an n-substituted fatty acid amide and retinol or retinyl ester” (Elizabeth Arden Co., Division of Conopco, Inc., priority 1996, dated 1999).
Read-outs that look alike come from different tables or passages of the source.

Columns and labels:
[1] = system: ARAT; assay: In vitro Microsomal Esterification of Retinol, ARAT catalyzed; format: biochemical, bovine; settings: 100 μM; 1 hour at 37° C.; pH 7
Experimental: (§1) Microsomes are obtained as described in: J. C. Saari and D. L. Bredberg, "CoA and Non-CoA Dependent Retinol Esterification in Retinal Figment Epithelium" J. Biol. Chem. 263, 8084-90 (1988).
(§2) A solution containing 0.1M sodium phosphate pH 7 buffer, 5 mM dithiothreitol, 2 mg/ml bovine serum albumin, 40 micromolar palmitoyl CoA, 40 micromolar dilauroyl phosphatidyl choline, 10 micromolar retinol and a test compound or a solvent blank, is incubated for 1 hour at 37° C. with a microsomal fraction isolated from bovine retinal pigment epithelial cells. After incubation, the reaction was quenched by addition of an equal volume of ethanol, and the retinyl esters formed (retinyl laurate from the LRAT catalyzed reaction and retinyl palmitate from ARAT catalyzed reaction) are extracted with hexane. The hexane layer is removed, evaporated under nitrogen, and the residue analyzed by HPLC on a 3.9×300 mm C18 reversed phase column using a 80% methanol in tetrahydrofuran mobile phase and fluorescence detection (325 nm excitation, 480 nm emission) to quantitate the retinyl ester. The quantity of ester formed in the presence of the solvent blank is taken as 100%, and this is used to calculate the percent inhibition of ester formation for the compounds tested. As a control, an aliquot of microsomes is inactivated by boiling for 5 minutes, which results in at least 95% inhibition of ester formation. […]

[2] = molecular target: T1, LRAT (Bos taurus, UniProt Q9BGL2); assay: In vitro Microsomal Esterification of Retinol, LRAT catalyzed; format: biochemical, bovine; settings: 1 hour at 37° C., pH 7
T1 construct: microsomal fraction isolated from bovine retinal pigment epithelial cells; from tissue; host or cells: microsomes of bovine retinal pigment epithelial cells
T1 sequence (Q9BGL2 1-230): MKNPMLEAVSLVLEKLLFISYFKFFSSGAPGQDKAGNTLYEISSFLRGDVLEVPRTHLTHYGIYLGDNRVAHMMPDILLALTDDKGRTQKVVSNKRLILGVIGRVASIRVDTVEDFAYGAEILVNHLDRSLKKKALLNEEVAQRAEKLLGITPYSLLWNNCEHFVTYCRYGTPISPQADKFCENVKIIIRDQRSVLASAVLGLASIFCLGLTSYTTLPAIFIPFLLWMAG
Experimental: as §1, §2

[3] = system: Human keratinocytes (TGase I); assay: Transglutaminase (TGase I) ELISA in cultured keratinocytes, normalized to DNA (Example 1); format: cell-based; settings: for dose dependence of decrease in transglutaminase level: 2.5×10^-7 M to 2.5×10^-9 M; for mean TGase/DNA × 10^-4 ± s.d: 72 hours, n = 3, Control 2.44 ± 0.24
Experimental: Human keratinocytes, isolated from neonatal foreskin by trypsin treatment were grown in Dulbecco Modification Eagle (DME) Hams F12 (1:1) medium/10% fetal calf serum in the presence of irradiated 3T3 mouse fibroblasts for establishing dividing keratinocyte colonies. Cells were grown under the above condition until their second passage and kept frozen for future use. Frozen second passage keratinocytes were thawed and plated into the above medium and grown for five days before they were switched to a serum-free MCDB 153-based medium keratinocyte growth medium (KGM) from Clonetics Corporation, San Diego, Calif., containing 0.15 mM Ca, or keratinocyte serum-free media (KSFM) from GIBCO containing 0.09 mM Ca). On day 7, when the cells were 80-90% confluent, they were trypsinized and plated in the serum-free medium for the various experiments.
(§3) During the process of terminal differentiation in the epidermis, a 15 nm thick layer of protein, known as the cornified envelope (CE) is formed on the inner surface of the cell periphery. The CE is composed of numerous distinct proteins which have been cross-linked together by the formation of N^ε -(γ-glutamyl) lysine isodipeptide bonds catalyzed by the action of at least two different transglutaminases (TGases) expressed in the epidermis. TGase I is expressed in abundance in the differentiated layers of the epidermis, especially the granular layer, but is absent in the undifferentiated basal epidermis. Thus TGase I is a useful marker of epidermal keratinocyte differentiation with high TGase I levels indicating a more differentiated state. An ELISA based TGase I assay, using a TGase I antibody, was used to assess the state of differentiation of the cultured keratinocytes in the examples that follow.
For Example 1, the following procedure was used:
Keratinocytes (cultured as described above) were plated in 96 well plates at a density of 3,000 cells per well in 200 μl media. After incubation for four days the media was changed to media containing test compounds (six replicates per test). The cells were cultured for a further 72 hours after which time the media was aspirated and the plates stored at -70° C. Plates were removed from the freezer, and the cells washed with PBS. 100 μl sterile water was added and the cells were freeze fractured by freezing at -70° C. then thawing. The cells were incubated for one hour at room temperature (R/T) with PBS/3% BSA (wash buffer, bovine serum albumin), then rinsed with a fresh aliquot of wash buffer. Cells were incubated with 50 μl of primary antibodies monoclonal anti-human transglutaminase mouse antibody (IgG) obtained from Biomedical Industries diluted 1:2,000 in wash buffer for one hour, 37° C. then rinsed two times with wash buffer. Cells were then incubated with 50 μl of secondary antibody (Fab fragment, peroxidase conjugated anti-mouse IgG obtaining from Amersham) diluted 1:4,000 in wash buffer for one hour at 37° C., then rinsed two times with wash buffer. Cells were incubated with substrate solution (4 mg o-phenylene diamine and 3.3 μl 30% H2 O2 in 10 ml 0.1 M citrate buffer pH 5.0) for five minutes, R/T, in darkness (under aluminum foil). The reaction was stopped by the addition of 50 μl 4N H2 SO4. The absorbance of samples was read at 492 nm in the plate reader. Out of the six replicates, four were treated with both antibodies, two were treated only with the secondary antibody (i.e., to determine background binding of enzyme conjugated Ab). TGase levels were determined by subtracting background from the readings from each treatment and determining mean±s.d. for the replicates exposed to both Ab.
The level of TGase-1 detected after treatment of the cells could be influenced by cell number, i.e., the greater the number of cells the greater the level of TGase-1 detected. The level of TGase-1 was normalized to DNA content of the cells in the same well thus eliminating variation due to differences in cell number. […]

[4] = system: Human keratinocytes (TGase I); assay: Transglutaminase (TGase I) ELISA in cultured keratinocytes, normalized to DNA (Example 3); format: cell-based; settings: for mean TGase/DNA × 10^5 ± s.d: Control 57.80 ± 8.61; for activity at 0.25 µM: Homo sapiens, Keratinocyte, read-out: mean TGase/DNA (% control)
Experimental: Human keratinocytes, isolated from neonatal foreskin by trypsin treatment were grown in Dulbecco Modification Eagle (DME) Hams F12 (1:1) medium/10% fetal calf serum in the presence of irradiated 3T3 mouse fibroblasts for establishing dividing keratinocyte colonies. Cells were grown under the above condition until their second passage and kept frozen for future use. […] On day 7, when the cells were 80-90% confluent, they were trypsinized and plated in the serum-free medium for the various experiments.
as §3
Keratinocytes (cultured as described above) were plated in 96 well plates at a density of 3,000 cells per well in 200 μl of cell culture media. After incubation for four days, the media was changed to media containing test compounds (six replicates per test). The cells were cultured for a further 72 hours after which time the media was aspirated and the plates stored at -70° C. After the plates were removed from the freezer, the cells were further freezed fractured by freezing and thawing and then washed 3× with PBS. The cells were incubated for one hour at room temperature (R/T) with TBS/5% BSA buffer. Cells were then incubated with 100 μl of monoclonal anti-human transglutaminase (IgG) mouse antibody (primary antibody) obtained from Biomedical Technologies Inc. diluted 1:2000 in TBS/1% BSA buffer for two hours at 37° C., and then rinsed six times with wash buffer (TBS/1% BSA/0.05% Tween-20). Cells were next incubated with 100 μl of Fab fragment, peroxidase conjugated anti-mouse IgG antibody (secondary antibody) from Amersham diluted 1:4,000 in wash buffer for two hours at 37° C. and then rinsed three times with wash buffer and three times with PBS. Cells were incubated with substrate solution (4 mg o-phenylene diamine and 3.3 μl 30% H2 O2 in 10 mL 0.1M citrate buffer, pH 5.0) for five minutes at R/T and in darkness (under aluminum foil). […] The absorbance of samples was read at 492 nm in the plate reader. […] Transglutaminase I levels were determined by subtracted background from the readings from each treatment and determining the mean s.d. for the replicates exposed to both antibodies.
The level of TGase-1 was normalized to DNA content of the cells in the same well thus eliminating variation due to differences in cell number. DNA quantitation is a particularly useful indicator of cell number, including keratinocyte cell number, because each cell has to all intents and purposes an identical genome and therefore an identical quantity of DNA. […] Quantitation of DNA was used to normalize the TGase data to cell number. […]

Row | SMILES | % INHIBITION, ARAT [1] | inhibition at 100 µM [2] | dose dependence of decrease in transglutaminase level [3] | decrease of keratinocyte differentiation compared with corresponding retinol treatments ([3]; 2.5×10^-7 M, 2.5×10^-8 M and 2.5×10^-9 M, vs retinol at same concentration) | effect on keratinocyte differentiation vs ethanol control ([3]; all concentrations tested: 2.5×10^-7 M, 2.5×10^-8 M and 2.5×10^-9 M) | mean TGase/DNA × 10^5 ± s.d ([4]; 2.5 × 10^-7 M, 72 hours, n = 3) | activity at 0.25 µM ([4]; 72 h) | mean TGase/DNA × 10^-4 ± s.d ([3]; 2.5 × 10^-7 M) | mean TGase/DNA × 10^-4 ± s.d ([3]; 2.5 × 10^-8 M) | mean TGase/DNA × 10^-4 ± s.d ([3]; 2.5 × 10^-9 M) | inhibition of keratinocyte TG1 level when used alone (in words) ([4]; 2.5×10^-7 M retinol, 10^-4 M Formula A, used alone, compared with 2.5×10^-7 M retinoic acid) | activity at 0.25 µM ([4]; 2.5 × 10^-7 M, 72 hours, n = 3)
1 | CCCCCCCC(=O)NC(COC)COC [Formula C] | 0% | 0% |  |  |  |  |  |  |  |  |  | 
2 | CC1=C(/C=C/C(C)=C/C=C/C(C)=C/C(=O)O)C(C)(C)CCC1 [Retinoic acid] |  |  | dose dependent | significantly greater extent | decreased keratinocyte differentiation | 39.99 ± 5.28 × 10^5 | 69% |  |  |  |  | 
3 | CC1=C(/C=C/C(C)=C/C=C/C(C)=C/CO)C(C)(C)CCC1 [Retinol] |  |  | dose dependent |  |  | 45.60 ± 3.92 × 10^5 |  | 1.14 ± 0.22 × 10^-4 | 1.89 ± 0.30 × 10^-4 | 2.70 ± 0.59 × 10^-4 | less effective | 79%
